Laboratory results as given in PubChem BioAssay AID2060624 (Molecular Pharmacology Branch, DTP, NCI, 2025).
pIC50: −log10 of the molar value.

System: 217524-143-R1-J4-PDC spheroids with HUVEC/MSC, viability
Experiment: Anticancer human tumor 217524-143-R1-J4-PDC patient-derived pancreatic carcinoma cell line growth inhibition [CLK]
Conditions: for pIC50: curve of first compound; for viability, T/C: stronger effect = lower value
Excerpt: A high-throughput screen of multi-cell type tumor spheroids was designed to identify active combinations of […] and targeted small molecules. Complex spheroids include a stromal component modeled by human endothelial cells (HUVEC) and fibroblasts modeled by human mesenchymal stem cells (MSCs). The concentration ranges selected for each drug and investigational agent were based upon clinically achievable concentrations if the clinical Cmax of the agent was known.
Compounds. The drugs and investigational agents: cirtuvivint (SM08502; NSC835563), CC-671 (NSC850746), vemurafenib (NSC761431), tapotoclax (NSC804041), sotorasib (NSC818433), adagrasib (NSC831453), MRTX-1133 (NSC836407), BAY2416964 (NSC825713), copanlisib (NSC816437), inavolisib (NSC800729), abemaciclib (NSC768073), osimertinib (NSC779217), entinostat (NSC756642), eltanexor (KPT-8602, NSC794443), venetoclax (NSC766270), ceralasertib (NSC777638), bortezomib (NSC756655), olaparib (NSC753686), talazoparib (NSC767125), alisertib (NSC759677), peposertib (NSC802822), gemcitabine (NSC613327), 5-fluorouracil (NSC19893), SN-38 (NSC673596), oxaliplatin (NSC266046), paclitaxel (NSC125973), and doxorubicin (NSC123127), were obtained from the National Cancer Institute (NCI) Developmental Therapeutics Program Chemical Repository. The FDA-approved anticancer drug set is available from the Developmental Therapeutics Program at https://dtp.cancer.gov/organization/dscb/obtaining/available plates.htm. […] The stock solutions were prepared in dimethyl sulfoxide (DMSO, Sigma-Aldrich, St. Louis, MO, cat. D2650), except for the platinum complexes which were prepared in saline (Quality Biological, Gaithersburg, MD, cat. 114-055-101), at 800-fold the tested concentration and stored at -70 degrees C prior to their use. All drugs and investigational agents were tested over a range starting from a high concentration at or near the clinical Cmax and decreasing in half-log increments. If the clinical Cmax for an agent had not been determined, the highest concentration tested was 10 microM.
Cell Culture. All cells were maintained in an incubator at 37 degrees C and 5% CO2 with 95% humidity. The PDC lines were cultured according to standard operating procedures established by the NCI PDMR. Briefly, all PDCs were thawed and cultured in Matrigel-coated flasks prepared with a working solution of 1X Ham's F-12 nutrient mix, without supplementation (Invitrogen, Waltham, MA, cat. 11765054), 100 U/mL penicillin-streptomycin (Invitrogen, cat. 15140122), and 2.5% Matrigel (Corning Inc., Corning, NY, cat. 354248) for the first three passages. The 947758-054-R-J2-PDC line was cultured in 6B/Colon 1A media, which includes advanced DMEM/F-12 (Thermo Fisher Scientific, cat. 12634028), 10 mM HEPES (Thermo Fisher Scientific, cat. 15630080), 1X GlutaMAX supplement (Thermo Fisher Scientific, cat. 35050061), 0.1 mg/mL primocin (InvivoGen, cat. ant-pm-2), 10% defined fetal bovine serum, heat inactivated (HyClone Laboratories Inc., cat. SH30070.03HI), 1.25 mM N-Acetyl-L-cysteine (Sigma-Aldrich, cat. A9165), 10 mM nicotinamide (Sigma-Aldrich, cat. N0636), 1X B-27 supplement (Thermo Fisher Scientific, cat. 17504044), 1X N-2 supplement (Thermo Fisher Scientific, cat. 17502048), and 10 microM Y-27632 dihydrochloride (Tocris Bioscience, cat. 1254). The 876862-298-R-J1-PDC was cultured in 6E media, which includes all 6B/Colon 1A media components plus 50% L-WRN conditioned media (ATCC, cat. CRL-3276), 50 ng/mL recombinant human EGF recombinant protein (hEGF; Thermo Fisher Scientific, cat. PHG0311), 10 ng/mL recombinant human fibroblast growth factor 10 (hGFG-10; PeproTech, cat. 100-26), 1 ng/mL recombinant human fibroblast growth factor 2 (hFGF-2; PeproTech, cat. 100-18B), and 1 µM prostaglandin E2 (PGE2; Tocris, cat. 2296). The 227483-062-R1-J1-PDC line was cultured in Panc media, containing all 6E components except hFGF-2, with the addition of 500 nM SB-431542 (Selleckchem, cat. S1067) and 10 nM gastrin (Tocris, cat. 3006). […]

[1] = second compound 0.0316 µM, first compound 0.0316 µM
[2] = second compound 0.0316 µM, first compound 0.1 µM
[3] = second compound 0.0316 µM, first compound 0.316 µM
[4] = second compound 0.0316 µM, first compound 1 µM
[5] = second compound 0.0316 µM, first compound 3.16 µM
[6] = second compound 0.0316 µM, first compound 10 µM
[7] = second compound 0.1 µM, first compound 0.0316 µM
[8] = second compound 0.1 µM, first compound 0.1 µM
[9] = second compound 0.1 µM, first compound 0.316 µM
[10] = second compound 0.1 µM, first compound 1 µM
[11] = second compound 0.1 µM, first compound 3.16 µM
[12] = second compound 0.1 µM, first compound 10 µM
[13] = second compound 0.316 µM, first compound 0.0316 µM
[14] = second compound 0.316 µM, first compound 0.1 µM
[15] = second compound 0.316 µM, first compound 0.316 µM
[16] = second compound 0.316 µM, first compound 1 µM
[17] = second compound 0.316 µM, first compound 3.16 µM
[18] = second compound 0.316 µM, first compound 10 µM
[19] = second compound 1 µM, first compound 0.0316 µM
[20] = second compound 1 µM, first compound 0.1 µM
[21] = second compound 1 µM, first compound 0.316 µM
[22] = second compound 1 µM, first compound 1 µM
[23] = second compound 1 µM, first compound 3.16 µM
[24] = second compound 1 µM, first compound 10 µM
[25] = second compound 3.16 µM, first compound 0.0316 µM
[26] = second compound 3.16 µM, first compound 0.1 µM
[27] = second compound 3.16 µM, first compound 0.316 µM
[28] = second compound 3.16 µM, first compound 1 µM
[29] = second compound 3.16 µM, first compound 3.16 µM
[30] = second compound 3.16 µM, first compound 10 µM
[31] = second compound 10 µM, first compound 0.0316 µM
[32] = second compound 10 µM, first compound 0.1 µM
[33] = second compound 10 µM, first compound 0.316 µM
[34] = second compound 10 µM, first compound 1 µM
[35] = second compound 10 µM, first compound 3.16 µM
[36] = second compound 10 µM, first compound 10 µM
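Also: spheroids exposed to agents for seven days before reading.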
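For viability, T/C in this document: 100% = DMSO vehicle control viability.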

## C#Cc1c(F)ccc2cc(O)cc(-c3ncc4c(N5CC6CCC(C5)N6)nc(OCC56CCCN5CC(F)C6)nc4c3F)c12 (stereo unspecified) + CN1CCN(c2cc(C(=O)Nc3cc4cc(-c5cnn(C)c5)ccc4cn3)ccn2)CC1
Second compound 0.0316 µM
  pIC50: < 5.00
Second compound 0.1 µM
  pIC50: 5.49
Second compound 0.316 µM
  pIC50: > 7.50
Second compound 1 µM
  pIC50: > 7.50
Second compound 3.16 µM
  pIC50: > 7.50
Second compound 10 µM
  pIC50: > 7.50
[1]
  viability, T/C: 76.1%
[2]
  viability, T/C: 74.4%
[3]
  viability, T/C: 65.5%
[4]
  viability, T/C: 85.1%
[5]
  viability, T/C: 81.1%
[6]
  viability, T/C: 55%
[7]
  viability, T/C: 53.6%
[8]
  viability, T/C: 46.2%
[9]
  viability, T/C: 53.2%
[10]
  viability, T/C: 55.5%
[11]
  viability, T/C: 49.3%
[12]
  viability, T/C: 37%
[13]
  viability, T/C: 28.3%
[14]
  viability, T/C: 23.9%
[15]
  viability, T/C: 25.2%
[16]
  viability, T/C: 21.6%
[17]
  viability, T/C: 24.8%
[18]
  viability, T/C: 18%
[19]
  viability, T/C: 2.18%
[20]
  viability, T/C: 2.28%
[21]
  viability, T/C: 3.15%
[22]
  viability, T/C: 2.36%
[23]
  viability, T/C: 1.66%
[24]
  viability, T/C: 2.26%
[25]
  viability, T/C: 0.79%
[26]
  viability, T/C: 0.88%
[27]
  viability, T/C: 0.86%
[28]
  viability, T/C: 0.96%
[29]
  viability, T/C: 0.86%
[30]
  viability, T/C: 0.79%
[31]
  viability, T/C: 0.25%
[32]
  viability, T/C: 0.25%
[33]
  viability, T/C: 0.2%
[34]
  viability, T/C: 0.23%
[35]
  viability, T/C: 0.23%
[36]
  viability, T/C: 0.43%

## C=C(F)C(=O)N1CCN(c2nc(OCC3CCCN3C)nc3c2CCN(c2cccc4cccc(Cl)c24)C3)CC1CC#N (stereo unspecified) + CN1CCN(c2cc(C(=O)Nc3cc4cc(-c5cnn(C)c5)ccc4cn3)ccn2)CC1
Second compound 0.0316 µM
  pIC50: 5.29
Second compound 0.1 µM
  pIC50: 5.64
Second compound 0.316 µM
  pIC50: > 7.50
Second compound 1 µM
  pIC50: > 7.50
Second compound 3.16 µM
  pIC50: > 7.50
Second compound 10 µM
  pIC50: > 7.50
[1]
  viability, T/C: 71.2%
[2]
  viability, T/C: 89.9%
[3]
  viability, T/C: 91.9%
[4]
  viability, T/C: 87.9%
[5]
  viability, T/C: 82.2%
[6]
  viability, T/C: 4.47%
[7]
  viability, T/C: 61.6%
[8]
  viability, T/C: 54.7%
[9]
  viability, T/C: 53.9%
[10]
  viability, T/C: 50.8%
[11]
  viability, T/C: 49.1%
[12]
  viability, T/C: 3.1%
[13]
  viability, T/C: 25%
[14]
  viability, T/C: 24.5%
[15]
  viability, T/C: 31%
[16]
  viability, T/C: 22.8%
[17]
  viability, T/C: 18.4%
[18]
  viability, T/C: 1.05%
[19]
  viability, T/C: 1.86%
[20]
  viability, T/C: 2.01%
[21]
  viability, T/C: 2.61%
[22]
  viability, T/C: 1.74%
[23]
  viability, T/C: 1.47%
[24]
  viability, T/C: 0.1%
[25]
  viability, T/C: 0.87%
[26]
  viability, T/C: 1.12%
[27]
  viability, T/C: 0.66%
[28]
  viability, T/C: 0.73%
[29]
  viability, T/C: 0.71%
[30]
  viability, T/C: 0.13%
[31]
  viability, T/C: 0.3%
[32]
  viability, T/C: 0.27%
[33]
  viability, T/C: 0.3%
[34]
  viability, T/C: 0.31%
[35]
  viability, T/C: 0.44%
[36]
  viability, T/C: 0.22%

## CC(CO)NC(=O)c1cc(-c2ccc(Cl)cc2)nn(-c2cnn(C)c2)c1=O (stereo unspecified) + CN1CCN(c2cc(C(=O)Nc3cc4cc(-c5cnn(C)c5)ccc4cn3)ccn2)CC1
Second compound 0.0316 µM
  pIC50: < 5.00
Second compound 0.1 µM
  pIC50: 6.64
Second compound 0.316 µM
  pIC50: > 7.50
Second compound 1 µM
  pIC50: > 7.50
Second compound 3.16 µM
  pIC50: > 7.50
Second compound 10 µM
  pIC50: > 7.50
[1]
  viability, T/C: 81%
[2]
  viability, T/C: 83.5%
[3]
  viability, T/C: 68.8%
[4]
  viability, T/C: 71.7%
[5]
  viability, T/C: 92%
[6]
  viability, T/C: 54.1%
[7]
  viability, T/C: 73.4%
[8]
  viability, T/C: 53.2%
[9]
  viability, T/C: 47.8%
[10]
  viability, T/C: 51%
[11]
  viability, T/C: 53.9%
[12]
  viability, T/C: 39.6%
[13]
  viability, T/C: 14.4%
[14]
  viability, T/C: 19.4%
[15]
  viability, T/C: 18.1%
[16]
  viability, T/C: 18.6%
[17]
  viability, T/C: 19.8%
[18]
  viability, T/C: 16.7%
[19]
  viability, T/C: 1.96%
[20]
  viability, T/C: 2.25%
[21]
  viability, T/C: 2.62%
[22]
  viability, T/C: 1.95%
[23]
  viability, T/C: 1.85%
[24]
  viability, T/C: 1.4%
[25]
  viability, T/C: 1.05%
[26]
  viability, T/C: 1.27%
[27]
  viability, T/C: 0.89%
[28]
  viability, T/C: 0.99%
[29]
  viability, T/C: 0.97%
[30]
  viability, T/C: 0.84%
[31]
  viability, T/C: 0.26%
[32]
  viability, T/C: 0.3%
[33]
  viability, T/C: 0.26%
[34]
  viability, T/C: 0.29%
[35]
  viability, T/C: 0.33%
[36]
  viability, T/C: 0.27%
